Consider eight compounds from PMC3163364, “Preformulation Studies of Zidovudine Derivatives: Acid Dissociation Constants, Differential Scanning Calorimetry, Thermogravimetry, X-Ray Powder Diffractometry and Aqueous Stability Studies” (Scientia Pharmaceutica, 2011).

Read-outs that look alike come from different tables or passages of the source.

Series [1] is described as follows: aqueous stability in buffers of different pH at 60 °C, HPLC. As to conditions: for half-life at 0.5 mM: aqueous buffer, read-out: t½. Also noted: key to Aqueous stability: Stable: degradation products by HPLC were not observed after 80 h of experiment; Unstable: The determination was not possible due to a rapid decomposition. Format: physicochemical. From the text:
Table 2 lists the pH media, experimental rate constants (kobs, when it could be determined) and their corresponding half-life times (t½).
The aqueous stability of AZT and their derivatives 2–6 was examined at different pH values: pH 1.0 (hydrochloric acid-potassium chloride); pH 2.6 (citric acid-sodium phosphate monobasic); pH 7.4 (sodium phosphate dibasic); pH 9.4 (sodium hydrogen carbonate-sodium hydroxide) and pH 13.2 (potassium chloride-sodium hydroxide). The buffer concentrations were 0.1 mol L^−1 and the ionic strength (μ) of the buffers was adjusted to 0.1 with calculated amount of sodium chloride (NaCl). All buffer solutions were prepared with Milli Q water. The pH of each solution was determined using a GLP 21 (Crison Instruments) pHmeter. Stock solutions (5 × 10^−5 mol mL^−1) of each compound were prepared in DMSO prior to use, with 10 μL of the stock solution being added to 990 μL of buffer, and the vials placed in a water bath at 60 °C during all the experiment. Each vial was withdrawn at predetermined time intervals, and immediately stored at −18 °C until being used. For their analysis, the samples were left to defrost, and the aliquots of 100 μL were sampled and added to 400 μL of MeOH at 25 °C. Then, the solution was analyzed by HPLC to determine the rate of disappearance of each compound.
Samples were analyzed using an HPLC system Agilent® 1100 equipped with Phenomenex® column: Hypersil ODS 5 μ particle diameter (4.6 × 250 mm). Detection was carried out with an UV detector at λ = 267 nm, using the following three solvent systems as mobile phases with a flow rate of 1 mL min^−1 at 35 °C: A); 50% phosphate buffer (pH 7.5, 0.02 mol L^−1), 50% MeOH and 2% THF; B) 60% phosphate buffer (pH 7.5, 0.02 mol L^−1), 40% MeOH and 2% THF; and; C) 65% phosphate buffer (pH 7.5, 0.02 mol L^−1), 35% MeOH and 2% THF to obtain an adequate peak separation.

Series [2] in a line: Differential Scanning Calorimetry (DSC) and Thermogravimetry (TG). The format is physicochemical. As to conditions: for DSC exothermic decomposition peak: accompanied by weight loss in TG, nitrogen atmosphere, 25–300 °C; for glass transition, small DSC endothermic peak (T onset): extrapolated onset temperature. As to the method: Compounds 2, 4, 5 and 6 also presented an exothermic decomposition peak above 150 °C, which is accompanied by a weight loss in the respective TG curves (Figure 3).
(§1) DSC measurements were carried out using a 2920 modulated DSC (TA Instrument). The temperature axis and the cell constant of the DSC were calibrated with indium. Weighed samples (1.5–3 mg, C-33 Microbalance, Cahan) were scanned in covered aluminium (Al) pans under a dynamic dry nitrogen atmosphere (50 mL min^−1) starting at 25 °C and raising the temperature in 5 °C steps until reaching 300 °C. TG measurements were performed with a TA Instrument Hi-res TG 2950 (TA Instrument). Samples (1.5–3 mg) were weighed in Al pans, starting at 25 °C and raising the temperature in 5 °C steps until reaching 300 °C, under a dynamic dry nitrogen atmosphere (50 mL min^−1). The Universal Analysis Version 2.5H software was used for both measurements. The XRPD patterns were determined at around 20 °C using a diffractometer (Miniflex 2000, Rigaku), with CuKα radiation (λ= 1.5418 Å) being obtained by Ni-filtration. Each sample was packed into an Al holder in the range of 5–50 (2Θ).

Details of series [3]: method as in earlier work. The settings on record: cited from earlier work.
For series [4], the system named is HIV. Also noted: method as in earlier work. As to conditions: previous in vitro studies; cited from earlier work.
For series [5] the following is noted: cited from earlier work.
Series [6] in a line: pKa determination by differential scanning potentiometry (DSP). The format is physicochemical. As to the method:
In the differential scanning potentiometry (DSP) methodology, acid and basic groups generate negative and positive areas, respectively. Thus, the NH acidic groups of AZT and thymidine were used as reference to validate the DSP, since their pKa values had been previously reported.
A conventional pH-meter (GLP 21, Crison Instrument) with an Ag/AgCl-reference electrode was used. NaOH was added at 0.1 mL increments, with its corresponding pH value recorded from the average of two sample determinations using DMSO as the cosolvent (2.5 %) at 25 °C. The areas were calculated using the Origin 7 program. For the reference graph, an aliquot of 10 mL of HCl (0.1 mol L^−1) and 0.5 mL of DMSO was titrated with NaOH (0.1 mol L^−1); for the sample graphs, aliquots (10 mL) of HCl (0.1 mol L^−1), 0.5 mL DMSO and 0.12 mmol for each compound were titrated with NaOH (0.1 mol L^−1). The volume of each solution was completed to 20 mL with Milli-Q water before titration.

On the set-up of series [7]: method as in earlier work. The settings on record: cited from earlier work. The source holds these as a separate data set.
Series [8] can be described thus: X-Ray Powder Diffractometry (XRPD). As to conditions: around 20 °C, CuKα radiation. Format: physicochemical. As to the method:
XRPD analysis provides an accurate identification of crystalline and amorphous solid phases. The XRPD patterns of AZT and their derivatives 2–6 are depicted in Figure 4.
as §1

Where [9] appears, read: aqueous HCl solution with DMSO cosolvent, titrated with NaOH, DSP, DMSO 2.5 % cosolvent, 25 °C, calculated from area with eq. 2, read-out: pKa, aliphatic amine, experimental value.
Where [10] appears, read: aqueous HCl solution with DMSO cosolvent, titrated with NaOH, DSP, DMSO 2.5 % cosolvent, 25 °C, calculated from area with eq. 2, read-out: pKa, NH group of the pyrimidinic base, experimental value.

As to `Cc1ccc(S(=O)(=O)OC[C@H]2O[C@@H](n3cc(C)c(=O)[nH]c3=O)C[C@@H]2N=[N+]=[N-])cc1` [compound 2], the half-life at 0.5 mM came out at 725 min in series [1] (pH 7.4, 60 °C); 46.5 min in series [1] (pH 9.4, 60 °C); 45.9 min in series [1] (pH 13.2, 60 °C). In addition, in series [1] (pH 1.0, 60 °C), the Aqueous stability result is “Stable^a”. Further, the “Degradation rate constant, kobs” value in series [1] (pH 7.4, 60 °C) was 0.94 10^−3 min^−1; in series [1] (pH 9.4, 60 °C), 14.9 10^−3 min^−1; in series [1] (pH 13.2, 60 °C), 15.1 10^−3 min^−1. Further, the “DSC exothermic decomposition peak” value in series [2] was “above 150 °C”. Also, the “stability in rat plasma” value in series [3] is on record as “stable”. The anti-HIV activity result in series [4] is “lacked the necessary activity”.

For `CC[C@H]1OC(=O)[C@H](C)[C@@H](O[C@H]2C[C@@](C)(OC)[C@@H](O)[C@H](C)O2)[C@H](C)[C@@H](O[C@@H]2O[C@H](C)C[C@H](N(C)C)[C@H]2O)[C@](C)(O)C[C@@H](C)C(=O)[C@H](C)[C@@H](O)[C@]1(C)O` [erytromycine], the “pKa of compounds used for regression of DSP area vs pKa (eq. 2)” value in series [5] (reference values, source not given) is reported as 8.80.

With `Cc1cn([C@H]2C[C@H](N=[N+]=[N-])[C@@H](CO)O2)c(=O)[nH]c1=O` [compound 1, 3′-Azido-3′-deoxythymidine, reference compound], the pKa in series [6] (DSP, DMSO 2.5 % cosolvent, 25 °C, calculated from area with eq. 2, read-out: pKa, NH group of the pyrimidinic base, experimental value) was 9.42. Moreover, the Aqueous stability result is given as “Stable^a” in series [1] (pH 1.0, 60 °C); “Stable^a” in series [1] (pH 7.4, 60 °C); “Stable^a” in series [1] (pH 9.4, 60 °C); “Stable^a” in series [1] (pH 13.2, 60 °C). Also, in series [1] (pH 1.0–13.2), the “aqueous stability over the studied pH media, in words” value is listed as “stable at the studied pH media”. In series [5], the “pKa, NH acidic group, previously reported experimental value” is 9.68.

Turning to `Cc1cn2c(nc1=O)OC[C@H]1O[C@@H]2C[C@@H]1N=[N+]=[N-]` [compound 3], the half-life at 0.5 mM in series [1] (pH 1.0, 60 °C) was determined as 128 min; in series [1] (pH 7.4, 60 °C) it was 4750 min; in series [1] (pH 9.4, 60 °C), 124 min. In addition, the “Degradation rate constant, kobs” value was 5.43 10^−3 min^−1 in series [1] (pH 1.0, 60 °C); 0.15 10^−3 min^−1 in series [1] (pH 7.4, 60 °C); 5.58 10^−3 min^−1 in series [1] (pH 9.4, 60 °C). In series [1] (pH 13.2, 60 °C), the Aqueous stability result is recorded as “Unstable^d”. Also, the “DSC exothermic decomposition peak” value in series [2] was found to be 215 °C. Moreover, the “stability in rat plasma” value in series [3] (30 h of incubation at 37 °C) is listed as “showed stability”. Besides, the anti-HIV activity entry in series [4] is on record as “anti-HIV activity”. In addition, in series [7], the cytotoxicity result is given as “no cytotoxicity”.

Consider `Cc1cn([C@H]2C[C@H](N=[N+]=[N-])[C@@H](COC(=O)NCCN3CCNCC3)O2)c(=O)[nH]c1=O` [compound 6], for which, in series [6] (setting [9]), the pKa was 9.03. In addition, in series [1] (pH 13.2, 60 °C), the half-life at 0.5 mM was 389 min; the “Degradation rate constant, kobs” value is reported as 1.96 10^−3 min^−1; the kobs came to 0.00196 min⁻¹. Moreover, the Aqueous stability result in series [1] (pH 1.0, 60 °C) was “Stable^a”. In series [1] (pH 7.4, 60 °C), the Aqueous stability result is given as “Stable^a”. In addition, in series [1] (pH 9.4, 60 °C), the Aqueous stability entry was “Stable^a”. In series [2], the “DSC exothermic decomposition peak” value was “above 150 °C” and the “glass transition, small DSC endothermic peak (T onset)” value was 42.5 °C. In addition, the “solid state by XRPD (crystalline or amorphous)” value in series [8] is “amorphous”.

In the case of `Cc1cn([C@H]2C[C@H](N=[N+]=[N-])[C@@H](COC(=O)N3CCCCC3)O2)c(=O)[nH]c1=O` [compound 4], the pKa in series [6] (setting [10]) is 8.61. The half-life at 0.5 mM in series [1] (pH 13.2, 60 °C) amounted to 674 min. In addition, the Aqueous stability result in series [1] (pH 1.0, 60 °C) is “Stable^a”; in series [1] (pH 7.4, 60 °C) it was “Stable^a”; in series [1] (pH 9.4, 60 °C) it was “Stable^a”. Also, the “Degradation rate constant, kobs” value in series [1] (pH 13.2, 60 °C) is listed as 1.04 10^−3 min^−1. Also, the kobs in series [1] (pH 13.2, 60 °C) amounted to 0.00104 min⁻¹. Further, the “DSC exothermic decomposition peak” value in series [2] was “above 150 °C”.

`Cc1cn([C@H]2C[C@H](O)[C@@H](CO)O2)c(=O)[nH]c1=O` [Thymidine, reference compound] had a pKa in series [6] (pKa, NH group of the pyrimidinic base, experimental value) of 9.45.

Turning to `Cc1cn([C@H]2C[C@H](N=[N+]=[N-])[C@@H](COC(=O)N3CCNCC3)O2)c(=O)[nH]c1=O` [compound 5], the pKa was 8.66 in series [6] (setting [10]) and 6.52 in series [6] (setting [9]). Further, the half-life at 0.5 mM in series [1] (pH 13.2, 60 °C) came to 238 min. Moreover, the Aqueous stability result in series [1] (pH 1.0, 60 °C) is “Stable^a”; in series [1] (pH 7.4, 60 °C) it was “Stable^a”; in series [1] (pH 9.4, 60 °C), “Stable^a”. The compound further displayed a kobs in series [1] (pH 13.2, 60 °C) of 0.00323 min⁻¹. Further, the “DSC exothermic decomposition peak” value in series [2] was “above 150 °C”. Further, the “glass transition, small DSC endothermic peak (T onset)” value in series [2] was 35.1 °C. Also, the “solid state by XRPD (crystalline or amorphous)” value in series [8] is recorded as “amorphous”.
